Assay results: the NIST ThermoML archive (doi:10.1021/je100952p)
Numbers after ± are expanded uncertainties.

Assay: activity coefficient (dimensionless); of the first substance listed, at infinite dilution; xn = mol fraction of the nth substance listed
Details: 101 kPa, Liquid, Chromatography, x1 = 0

SMILES	activity coefficient (303.15 K)	activity coefficient (313.15 K)	activity coefficient (323.15 K)	activity coefficient (333.15 K)	activity coefficient (343.15 K)	activity coefficient (353.15 K)	activity coefficient (363.15 K)
Cc1ccccc1C [1,2-dimethylbenzene] + CCCCCCCCCCn1cc[n+](C)c1.F[B-](F)(F)F	1.79 ± 0.11	1.77 ± 0.11	1.75 ± 0.11	1.73 ± 0.11	1.72 ± 0.11	1.72 ± 0.11	1.71 ± 0.11
Cc1cccc(C)c1 [1,3-dimethylbenzene] + CCCCCCCCCCn1cc[n+](C)c1.F[B-](F)(F)F	2.03 ± 0.13	2.02 ± 0.13	1.97 ± 0.13	1.95 ± 0.13	1.94 ± 0.12	1.92 ± 0.12	1.91 ± 0.12
Cc1ccc(C)cc1 [1,4-dimethylbenzene] + CCCCCCCCCCn1cc[n+](C)c1.F[B-](F)(F)F	1.99 ± 0.13	1.96 ± 0.13	1.93 ± 0.12	1.92 ± 0.12	1.91 ± 0.12	1.88 ± 0.12	1.86 ± 0.12
CC(C)CC(C)(C)C [2,2,4-trimethylpentane] + CCCCCCCCCCn1cc[n+](C)c1.F[B-](F)(F)F	9.13 ± 0.59	9.11 ± 0.59	9.1 ± 0.6	9.08 ± 0.59	9.07 ± 0.59	9.07 ± 0.59	9.06 ± 0.59
CCCCCCC [heptane] + CCCCCCCCCCn1cc[n+](C)c1.F[B-](F)(F)F	8.01 ± 0.52	7.97 ± 0.52	7.95 ± 0.51	7.93 ± 0.51	7.91 ± 0.51	7.89 ± 0.51	7.88 ± 0.51
CCCCCCCC [octane] + CCCCCCCCCCn1cc[n+](C)c1.F[B-](F)(F)F	9.3 ± 0.6	9.26 ± 0.6	9.21 ± 0.6	9.2 ± 0.6	9.17 ± 0.59	9.16 ± 0.59	9.13 ± 0.59
C=Cc1ccccc1 [styrene] + CCCCCCCCCCn1cc[n+](C)c1.F[B-](F)(F)F	–	1.25 ± 0.08	1.22 ± 0.07	1.2 ± 0.1	1.18 ± 0.07	1.16 ± 0.07	1.14 ± 0.07
Cc1ccccc1 [toluene] + CCCCCCCCCCn1cc[n+](C)c1.F[B-](F)(F)F	1.52 ± 0.09	1.49 ± 0.09	1.47 ± 0.09	1.43 ± 0.09	1.41 ± 0.09	1.4 ± 0.1	1.35 ± 0.08

Results, then the compound that gave them:

activity coefficient (303.15 K)	activity coefficient (313.15 K)	activity coefficient (323.15 K)	activity coefficient (333.15 K)	activity coefficient (343.15 K)	activity coefficient (353.15 K)	activity coefficient (363.15 K)	SMILES
1.15 ± 0.07	1.14 ± 0.07	1.11 ± 0.07	1.1 ± 0.1	1.08 ± 0.06	1.07 ± 0.06	1.06 ± 0.06	c1ccccc1 [benzene] + CCCCCCCCCCn1cc[n+](C)c1.F[B-](F)(F)F
4.42 ± 0.29	4.43 ± 0.29	4.43 ± 0.29	4.47 ± 0.29	4.5 ± 0.3	4.56 ± 0.29	4.69 ± 0.3	C1CCCCC1 [cyclohexane] + CCCCCCCCCCn1cc[n+](C)c1.F[B-](F)(F)F
3.03 ± 0.2	3.01 ± 0.19	2.99 ± 0.19	2.97 ± 0.19	2.96 ± 0.19	2.96 ± 0.19	2.96 ± 0.19	C1=CCCCC1 [cyclohexene] + CCCCCCCCCCn1cc[n+](C)c1.F[B-](F)(F)F
–	2.02 ± 0.13	2.01 ± 0.13	1.99 ± 0.13	1.98 ± 0.13	1.97 ± 0.13	1.96 ± 0.13	CCc1ccccc1 [ethylbenzene] + CCCCCCCCCCn1cc[n+](C)c1.F[B-](F)(F)F
7.36 ± 0.48	7.16 ± 0.46	7.03 ± 0.45	6.94 ± 0.45	6.86 ± 0.44	6.81 ± 0.44	6.68 ± 0.43	CCCCCC [hexane] + CCCCCCCCCCn1cc[n+](C)c1.F[B-](F)(F)F
5.19 ± 0.34	5.23 ± 0.34	5.24 ± 0.34	5.28 ± 0.34	5.32 ± 0.34	5.36 ± 0.35	5.39 ± 0.35	CC1CCCCC1 [methylcyclohexane] + CCCCCCCCCCn1cc[n+](C)c1.F[B-](F)(F)F
10.7 ± 0.69	10.7 ± 0.69	10.7 ± 0.69	10.7 ± 0.69	10.7 ± 0.69	10.7 ± 0.69	10.6 ± 0.69	CCCCCCCCC [nonane] + CCCCCCCCCCn1cc[n+](C)c1.F[B-](F)(F)F
6.88 ± 0.45	6.72 ± 0.43	6.53 ± 0.42	6.29 ± 0.41	6.12 ± 0.4	6.01 ± 0.39	5.93 ± 0.38	CCCCC [pentane] + CCCCCCCCCCn1cc[n+](C)c1.F[B-](F)(F)F
